Measurements taken from the NIST ThermoML archive (doi:10.1021/acs.jced.9b00607).

Assay: wn = mass fraction of the nth substance listed
Settings: 102 kPa, Liquid; for viscosity: Falling or rolling sphere viscometry; for mass density: Vibrating tube method

CN(CCO)CCO [N-methyldiethanolamine] + OCCO
Settings | mass density [kg/m3] | viscosity [mPa·s]
283.15 K, w1 = 0.3 | 1101.8 | 64.36
283.15 K, w1 = 0.4 | 1095.1 | 80.69
283.15 K, w1 = 0.5 | 1088.1 | 99.66
283.15 K, w1 = 0.7 | 1073.3 | –
283.15 K, w1 = 0.8 | 1065.4 | 164.27
283.15 K, w1 = 0.9 | 1057.2 | 181.33
283.15 K, w1 = 1 | 1048 | 198.15
298.15 K, w1 = 0.3 | 1090.9 | 30.43
298.15 K, w1 = 0.4 | 1084.3 | 36.57
298.15 K, w1 = 0.5 | 1077.2 | 43.55
298.15 K, w1 = 0.7 | 1062.1 | 58.07
298.15 K, w1 = 0.8 | 1054 | 66.59
298.15 K, w1 = 0.9 | 1045.6 | 69.21
298.15 K, w1 = 1 | 1036.8 | 74.87
313.15 K, w1 = 0.3 | 1079.9 | 15.89
313.15 K, w1 = 0.4 | 1073.2 | 18.52
313.15 K, w1 = 0.5 | 1066 | 21.58
313.15 K, w1 = 0.7 | 1050.8 | 27.72
313.15 K, w1 = 0.8 | 1042.6 | 30.49
313.15 K, w1 = 0.9 | 1034.1 | 33.05
313.15 K, w1 = 1 | 1025.3 | 35.05
323.15 K, w1 = 0.3 | 1072.5 | 10.8
323.15 K, w1 = 0.4 | 1065.7 | 12.43
323.15 K, w1 = 0.5 | 1058.5 | 14.2
323.15 K, w1 = 0.7 | 1043.1 | 17.75
323.15 K, w1 = 0.8 | 1034.9 | 19.48
323.15 K, w1 = 0.9 | 1026.4 | 20.91
323.15 K, w1 = 1 | 1017.7 | 21.96
333.15 K, w1 = 0.3 | 1065.1 | 7.82
333.15 K, w1 = 0.4 | 1058.1 | 8.82
333.15 K, w1 = 0.5 | 1050.9 | 9.94
333.15 K, w1 = 0.7 | 1035.4 | 12.17
333.15 K, w1 = 0.8 | 1027.2 | 13.26
333.15 K, w1 = 0.9 | 1018.7 | 14.12
333.15 K, w1 = 1 | 1010 | 14.83
343.15 K, w1 = 0.3 | 1057.4 | 5.75
343.15 K, w1 = 0.4 | 1050.5 | 6.45
343.15 K, w1 = 0.5 | 1043.1 | 7.17
343.15 K, w1 = 0.7 | 1027.5 | 8.61
343.15 K, w1 = 0.8 | 1019.3 | 9.26
343.15 K, w1 = 0.9 | 1010.9 | 9.81
343.15 K, w1 = 1 | 1002.2 | 10.29
353.15 K, w1 = 0.3 | 1049.7 | 4.44
353.15 K, w1 = 0.4 | 1042.7 | 4.89
353.15 K, w1 = 0.5 | 1035.3 | 5.36
353.15 K, w1 = 0.7 | 1019.7 | 6.32
353.15 K, w1 = 0.8 | 1011.5 | 6.76
353.15 K, w1 = 0.9 | 1003 | 7.13
353.15 K, w1 = 1 | 994.5 | 7.4
